Results reported in patent US12398154B2, “Azaquinazoline pan-KRas inhibitors” (Mirati Therapeutics, Inc., priority 2020, dated 2025).

How the values were obtained:
KRas G12R = KRas G12R (Homo sapiens, UniProt P01116, G12R); test: biochemical;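 further: TR-FRET displacement assay of compound binding to KRas, read after one hour at room temperature, potency from a four-parameter fit of percent-of-control values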
Protocol: (§1) The ability of a compound to bind to KRas was measured using a TR-FRET displacement assay. […] After a 60-minute incubation at room temperature, the reaction was measured using a BMG LABTECH CLARIO star Plus via TR-FRET. […] The POC values were fit to a 4-parameter IC50 equation and the IC50 value reported.

KRas G13D = target: T1, KRas G13D (Homo sapiens, UniProt P01116, G13D); test: KRas binding assay (TR-FRET displacement);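 further: One-hour room temperature incubation before TR-FRET reading, IC50 from a four-parameter curve fit to percent-of-control data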
T1 construct: Biotinylated KRas (corresponding to amino acids 1-169, produced at Accelegan Inc.); biotin (biotinylated); purchased Accelegan Inc
Protocol: as §1

KRas WT = KRas WT (Homo sapiens, UniProt P01116); test: biochemical;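 further: binding to KRas read as TR-FRET displacement after a one-hour room-temperature incubation, IC50 derived from percent-of-control values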
Protocol: as §1

KRas G12D = KRas G12D (Homo sapiens, UniProt P01116, G12D); test: biochemical;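 further: TR-FRET displacement binding assay on KRas, read after a one-hour incubation at room temperature, IC50 fitted from percent-of-control values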
Protocol: as §1

KRas G12V = KRas G12V (Homo sapiens, UniProt P01116, G12V); test: biochemical;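 further: KRas binding measured by TR-FRET displacement at room temperature, IC50 fitted from percent of control values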
Protocol: as §1

KRas G12S = KRas G12S (Homo sapiens, UniProt P01116, G12S); test: biochemical;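 further: TR-FRET displacement binding to KRas, read after one hour incubation at room temperature, IC50 from four-parameter fit of percent of control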
Protocol: as §1

KRas G12A = KRas G12A (Homo sapiens, UniProt P01116, G12A); test: biochemical;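 further: binding to KRas measured by TR-FRET displacement after one hour at room temperature, IC50 from a four-parameter fit of percent-of-control values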
Protocol: as §1

KRas Q61H = target: T2, KRas Q61H (Homo sapiens, UniProt P01116, Q61H); test: KRas binding assay (TR-FRET displacement);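 further: TR-FRET signal read after one hour at room temperature, IC50 derived by four-parameter fitting of percent-of-control values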
T2 construct: Biotinylated KRas (corresponding to amino acids 1-169, produced at Accelegan Inc.); biotin (biotinylated); purchased Accelegan Inc
Protocol: as §1

KRas G12C = KRas G12C (Homo sapiens, UniProt P01116, G12C); test: biochemical;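 further: binding to KRas assessed by TR-FRET displacement after one hour incubation at room temperature, potency fitted from percent-of-control values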
Protocol: as §1

pERK in PSN1 cells = test: Inhibition of KRas phosphorylation of ERK (Cisbio HTRF pERK assay); conditions: Homo sapiens, PSN1, 3 h, read-out: Inhibition (HTRF IC50) of KRas-mediated Phosphorylation of ERK, PSN1
pERK in HCT116 cells = test: as above; conditions: Homo sapiens, HCT-116, read-out: Inhibition (HTRF IC50) of KRas-mediated Phosphorylation of ERK, HCT116
pERK in ASPC1 cells = test: as above; conditions: Homo sapiens, ASPC1, read-out: Inhibition (HTRF IC50) of KRas-mediated Phosphorylation of ERK, AsPC-1
pERK in MKN1 cells = test: as above; conditions: Homo sapiens, MKN-1, 3 h, read-out: Inhibition (HTRF IC50) of KRas-mediated Phosphorylation of ERK, MKN1
pERK in H460 cells = test: as above; conditions: Homo sapiens, NCI-H460, read-out: Inhibition (HTRF IC50) of KRas-mediated Phosphorylation of ERK, H460
pERK in H727 cells = test: as above; conditions: Homo sapiens, NCI-H727, read-out: Inhibition (HTRF IC50) of KRas-mediated Phosphorylation of ERK, H727

Sequence of KRas G12D (P01116 1-169 isoform P01116-2 G12D): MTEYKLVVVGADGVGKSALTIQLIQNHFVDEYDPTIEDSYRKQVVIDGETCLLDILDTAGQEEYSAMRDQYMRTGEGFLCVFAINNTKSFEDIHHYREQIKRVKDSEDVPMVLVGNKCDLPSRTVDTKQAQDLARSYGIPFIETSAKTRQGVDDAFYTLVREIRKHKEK
Sequence of KRas G12C (P01116 1-169 isoform P01116-2 G12C): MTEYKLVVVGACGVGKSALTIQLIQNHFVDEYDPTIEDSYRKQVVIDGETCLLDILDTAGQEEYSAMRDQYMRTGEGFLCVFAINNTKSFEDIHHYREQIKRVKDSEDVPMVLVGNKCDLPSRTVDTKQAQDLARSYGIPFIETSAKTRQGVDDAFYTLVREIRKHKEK
Sequence of KRas G12V (P01116 1-169 isoform P01116-2 G12V): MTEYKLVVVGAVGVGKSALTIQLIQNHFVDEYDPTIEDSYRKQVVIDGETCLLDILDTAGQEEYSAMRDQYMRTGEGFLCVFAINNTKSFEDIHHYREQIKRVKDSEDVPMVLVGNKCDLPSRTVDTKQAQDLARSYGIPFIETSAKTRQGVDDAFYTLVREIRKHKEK
Sequence of KRas G12R (P01116 1-169 isoform P01116-2 G12R): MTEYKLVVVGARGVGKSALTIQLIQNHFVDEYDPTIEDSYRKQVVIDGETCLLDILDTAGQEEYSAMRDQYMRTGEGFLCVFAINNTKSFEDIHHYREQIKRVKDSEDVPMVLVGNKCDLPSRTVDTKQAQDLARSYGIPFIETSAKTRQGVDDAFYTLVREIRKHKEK
Sequence of KRas WT (P01116 1-169 isoform P01116-2): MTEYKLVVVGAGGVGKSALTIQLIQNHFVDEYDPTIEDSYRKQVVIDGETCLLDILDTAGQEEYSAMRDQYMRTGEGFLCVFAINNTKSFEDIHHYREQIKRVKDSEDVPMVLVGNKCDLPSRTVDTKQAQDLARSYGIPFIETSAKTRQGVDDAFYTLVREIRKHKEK
Sequence of KRas G12S (P01116 1-169 isoform P01116-2 G12S): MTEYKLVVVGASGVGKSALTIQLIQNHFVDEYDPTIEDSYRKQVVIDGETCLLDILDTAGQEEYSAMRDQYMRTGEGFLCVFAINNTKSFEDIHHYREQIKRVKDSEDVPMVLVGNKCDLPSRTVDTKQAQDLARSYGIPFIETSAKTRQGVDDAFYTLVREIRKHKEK
Sequence of KRas G12A (P01116 1-169 isoform P01116-2 G12A): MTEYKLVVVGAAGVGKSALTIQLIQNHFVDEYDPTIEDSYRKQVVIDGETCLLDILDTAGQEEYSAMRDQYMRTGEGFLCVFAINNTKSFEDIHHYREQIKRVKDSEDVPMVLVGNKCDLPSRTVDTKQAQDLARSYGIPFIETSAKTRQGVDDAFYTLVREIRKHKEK
T1 sequence (P01116 1-169 isoform P01116-2 G13D): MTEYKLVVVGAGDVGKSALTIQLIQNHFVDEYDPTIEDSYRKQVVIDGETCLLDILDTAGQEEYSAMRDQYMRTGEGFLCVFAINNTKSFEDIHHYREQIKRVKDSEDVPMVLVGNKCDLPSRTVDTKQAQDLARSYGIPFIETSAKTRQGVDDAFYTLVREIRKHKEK
T2 sequence (P01116 1-169 isoform P01116-2 Q61H): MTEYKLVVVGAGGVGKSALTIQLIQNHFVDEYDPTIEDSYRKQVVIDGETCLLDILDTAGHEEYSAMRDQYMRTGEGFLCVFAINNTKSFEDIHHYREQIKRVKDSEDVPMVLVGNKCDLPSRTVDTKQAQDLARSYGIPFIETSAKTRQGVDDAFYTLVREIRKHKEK

| IC50 (KRas G12R) [nM] | IC50 (KRas G13D) [nM] | IC50 (KRas WT) [nM] | IC50 (KRas G12D) [nM] | IC50 (KRas G12V) [nM] | IC50 (KRas G12S) [nM] | IC50 (KRas G12A) [nM] | IC50 (KRas Q61H) [nM] | IC50 (KRas G12C) [nM] | IC50 (pERK in PSN1 cells) [nM] | IC50 (pERK in HCT116 cells) [nM] | IC50 (pERK in ASPC1 cells) [nM] | IC50 (pERK in MKN1 cells) [nM] | IC50 (pERK in H460 cells) [nM] | IC50 (pERK in H727 cells) [nM] | SMILES |
| --- | --- | --- | --- | --- | --- | --- | --- | --- | --- | --- | --- | --- | --- | --- | --- |
| 2610 | 9610 | 7100 | 1610 | 3980 | 2320 | 5740 | 10700 | 2390 |  |  |  |  |  |  | OCc1cc2n(n1)CCCN(c1nc(OCC34CCCN3CCC4)nc3c(F)c(-c4cccc5cccc(F)c45)ncc13)C2 [Example 261, (5-(8-fluoro-7-(8-fluoronaphthalen-1-yl)-2-((hexahydro-1H-pyrrolizin-7a-yl)methoxy)pyrido[4,3-d]pyrimidin-4-yl)-5,6,7,8-tetrahydro-4H-pyrazolo[1,5-a][1,4]diazepin-2-yl)methanol] |
| ≤ 2 |  | ≤ 2 | ≤ 2 | ≤ 2 | ≤ 2 | ≤ 2 |  | ≤ 2 | 877 | 60 | 133 | 13 | 65 | 69 | CCc1c(F)ccc2cc(O)cc(-c3ncc4c(N5CCCC6(CC(=O)NC6=O)C5)nc(OC[C@@]56CCCN5C[C@H](F)C6)nc4c3F)c12 (stereo partly drawn) [Example 318, 7-(7-(8-ethyl-7-fluoro-3-hydroxynaphthalen-1-yl)-8-fluoro-2-(((2R,7aS)-2-fluorohexahydro-1H-pyrrolizin-7a-yl)methoxy)pyrido[4,3-d]pyrimidin-4-yl)-2,7-diazaspiro[4.5]decane-1,3-dione] |
| 3 |  |  | 3 | 3 |  |  |  |  | 4460 | 195 | 118 | 98 | 127 | 73 | CCc1c(F)ccc2cc(O)cc(-c3ncc4c(N5CCCCC(O)C5)nc(OC[C@@]56CCCN5C[C@H](F)C6)nc4c3F)c12 (stereo partly drawn) [Example 347, 1-(7-(8-ethyl-7-fluoro-3-hydroxynaphthalen-1-yl)-8-fluoro-2-(((2R,7aS)-2-fluorohexahydro-1H-pyrrolizin-7a-yl)methoxy)pyrido[4,3-d]pyrimidin-4-yl)azepan-3-ol] |
| ≤ 2 |  |  | ≤ 2 | ≤ 2 |  |  |  |  | 1300 | 2190 | 141 | 3 | 283 | 83 | O=C1C[C@]2(CCCN(c3nc(OC[C@@]45CCCN4C[C@H](F)C5)nc4c(F)c(-c5cc(O)cc6ccc(F)c(Cl)c56)ncc34)C2)N1 [Example 416, (S)-6-(7-(8-chloro-7-fluoro-3-hydroxynaphthalen-1-yl)-8-fluoro-2-(((2R,7aS)-2-fluorohexahydro-1H-pyrrolizin-7a-yl)methoxy)pyrido[4,3-d]pyrimidin-4-yl)-1,6-diazaspiro[3.5]nonan-2-one] |
| ≤ 2 |  | ≤ 2 | ≤ 2 | ≤ 2 |  |  |  | ≤ 2 | 110 | 79 | 182 | 20 | 63 | 57 | O=S1(=O)NCC2(CCCN(c3nc(OC[C@@]45CCCN4C[C@H](F)C5)nc4c(F)c(-c5cc(O)cc6ccc(F)c(Cl)c56)ncc34)C2)N1 (stereo partly drawn) [Example 417, 7-(7-(8-chloro-7-fluoro-3-hydroxynaphthalen-1-yl)-8-fluoro-2-(((2R,7aS)-2-fluorohexahydro-1H-pyrrolizin-7a-yl)methoxy)pyrido[4,3-d]pyrimidin-4-yl)-2-thia-1,3,7-triazaspiro[4.5]decan 2,2-dioxide] |
| 5 |  |  | 7 | ≤ 2 |  |  |  |  | 1810 | 539 | 430 | 26 | 303 | 112 | Oc1cc(-c2ncc3c(N4CC5CC(O)CC4C5)nc(OC[C@@]45CCCN4C[C@H](F)C5)nc3c2F)c2c(Cl)c(F)ccc2c1 (stereo partly drawn) [Example 422, 6-(7-(8-chloro-7-fluoro-3-hydroxynaphthalen-1-yl)-8-fluoro-2-(((2R,7aS)-2-fluorohexahydro-1H-pyrrolizin-7a-yl)methoxy)pyrido[4,3-d]pyrimidin-4-yl)-6-azabicyclo[3.2.1]octan-3-ol] |
| 12 |  |  | 5 | 4 |  |  |  |  | ≥ 10000 |  | 203 | 328 | 987 | 115 | CCc1c(F)ccc2cc(O)cc(-c3ncc4c(N5CCCc6nn(C(=O)NC(C)C)cc6C5)nc(OC[C@@]56CCCN5C[C@H](F)C6)nc4c3F)c12 [Example 479, 5-(7-(8-ethyl-7-fluoro-3-hydroxynaphthalen-1-yl)-8-fluoro-2-(((2R,7aS)-2-fluorohexahydro-1H-pyrrolizin-7a-yl)methoxy)pyrido[4,3-d]pyrimidin-4-yl)-N-isopropyl-5,6,7,8-tetrahydropyrazolo[4,3-c]azepine-2(4H)-carboxamide] |
| 7 |  |  | 4 | 4 |  |  |  |  | 5410 | 3150 | 387 | 49 | 827 | 643 | CCc1c(F)ccc2cc(O)cc(-c3ncc4c(N5CCCC6(C5)CS(=O)(=O)C6)nc(OC[C@@]56CCCN5C[C@H](F)C6)nc4c3F)c12 [Example 481, 6-(7-(8-ethyl-7-fluoro-3-hydroxynaphthalen-1-yl)-8-fluoro-2-(((2R,7aS)-2-fluorohexahydro-1H-pyrrolizin-7a-yl)methoxy)pyrido[4,3-d]pyrimidin-4-yl)-2-thia-6-azaspiro[3.5]nonane 2,2-dioxide] |
| ≤ 2 |  |  | ≤ 2 | ≤ 2 |  |  |  |  | ≥ 10000 |  | 890 | 83 | 1590 | 339 | CCc1c(F)ccc2cc(O)cc(-c3ncc4c(NCc5cc(C(=O)N(C)C)nn5C)nc(OC[C@@]56CCCN5C[C@H](F)C6)nc4c3F)c12 [Example 483, 5-(((7-(8-ethyl-7-fluoro-3-hydroxynaphthalen-1-yl)-8-fluoro-2-(((2R,7aS)-2-fluorotetrahydro-1H-pyrrolizin-7a(5H)-yl)methoxy)pyrido[4,3-d]pyrimidin-4-yl)amino)methyl)-N,N,1-trimethyl-1H-pyrazole-3-carboxamide] |
| ≤ 2 |  |  | 3 | ≤ 2 |  |  |  |  | ≥ 10000 | 2170 | 354 | 135 | 982 | 795 | CCc1c(F)ccc2cc(O)cc(-c3ncc4c(NCC5CNS(=O)(=O)N5)nc(OC[C@@]56CCCN5C[C@H](F)C6)nc4c3F)c12 (stereo partly drawn) [Example 494, 3-(((7-(8-ethyl-7-fluoro-3-hydroxynaphthalen-1-yl)-8-fluoro-2-(((2R,7aS)-2-fluorohexahydro-1H-pyrrolizin-7a-yl)methoxy)pyrido[4,3-d]pyrimidin-4-yl)amino)methyl)-1,2,5-thiadiazolidine 1,1-dioxide] |
| ≤ 2 |  |  | ≤ 2 | ≤ 2 |  |  |  |  | ≥ 10000 | ≥ 10000 | 302 | 703 | 8910 | 2220 | CCc1c(F)ccc2cc(O)cc(-c3ncc4c(N5CCCn6nc(C(=O)NCCO)cc6C5)nc(OC[C@@]56CCCN5C[C@H](F)C6)nc4c3F)c12 [Example 506, 5-(7-(8-ethyl-7-fluoro-3-hydroxynaphthalen-1-yl)-8-fluoro-2-(((2R,7aS)-2-fluorotetrahydro-1H-pyrrolizin-7a(5H)-yl)methoxy)pyrido[4,3-d]pyrimidin-4-yl)-N-(2-hydroxyethyl)-5,6,7,8-tetrahydro-4H-pyrazolo[1,5-a][1,4]diazepine-2-carboxamide] |
